From patent publication US7262199B2, “Tyrosine kinase inhibitors” (Merck & Co., Inc., priority 2002, dated 2007)

c1ccc(-c2cnn3cc(-c4ccc(CCCN5CCOCC5)cc4)cnc23)cc1 [Compound 2-6, 6-[4-(3-morpholin-4-ylpropyl)phenyl]-3-phenylpyrazolo[1,5-a]pyrimidine]
melting point: 147 to 149 °C
